Values joined by “and” are separate entries in the source; they are usually repeats but may differ in a detail not shown here. Equal values may be shown once. Read-outs that look alike come from different tables or passages of the source.
Assays:
[1] = test system: human chronic myeloid leukemia cell line K562; assay: CCK-8 in vitro proliferation inhibition; format: cell-based; conditions: read-out: Inhibitory activity (IC50) on cell proliferation, K562
Procedure: (§1) Cell lines: human chronic myeloid leukemia cell line K562, human acute myeloid leukemia cell line U937, human T lymphocyte leukemia cell line HuT78, and human T lymphoblastic lymphoma cell line Jurkat. Cells were purchased from the Chinese Academy of Sciences Stem Cell Bank or ATCC.
(§2) […] were cultured overnight and suspended cells were directly stimulated with drugs. […] Two repeats were set for each concentration, with a final volume of 200 μL. […] The absorbance values at 450 nm and 650 nm were measured using a microplate reader, and the increment Z (A450-A650) was derived. The inhibitory rate of drugs on cell growth was calculated by GraphPad Prism 8.0.0 through the following formula:
(§3) Inhibition rate (%)(ODcontrol−ODdosing)/ODcontrol×100%
(§4) The half inhibitory concentration (IC50) was calculated. Every experiment was repeated at least three times.

[2] = test system: human T lymphocyte leukemia cell line HuT78; assay: CCK-8 in vitro proliferation inhibition; format: cell-based; conditions: read-out: Inhibitory activity (IC50) on cell proliferation, HUT78
Procedure: as §1, §2, §3, §4

[3] = test system: human T lymphoblastic lymphoma cell line Jurkat; assay: CCK-8 in vitro proliferation inhibition; format: cell-based; conditions: 72 hours, read-out: Inhibitory activity (IC50) on cell proliferation, JURKAT
Procedure: as §1, §2, §3, §4

JAK2 = JAK2 (Homo sapiens (Human), UniProt O60674); assay: Z′-Lyte kinase inhibitory activity test; format: biochemical
Procedure: (§5) Test method: Firstly, test compounds were prepared into 10 mM stock solution with DMSO, and continuously diluted into 10 concentrations at a 3-fold gradient for later use. 5X reaction buffer was diluted with deionized water into 1×reaction buffer (50 mM HEPES pH 7.5, 0.01% Brij-35, 10 mM MgCl2, 1 mM EGTA), which was used to prepare a mixture of kinase and peptide substrate, as well as a phosphorylated peptide substrate solution. The kinase concentration was determined based on enzyme titration, and the final concentration of peptide substrate and phosphorylated peptide substrate was 2 μM. 5 μL of mixture substrate of kinase and peptide substrate was added to each well on the 384 well plate. Then 5 nL of the test compound (starting with a final concentration of 10 μM) was added with an Echo520 Sampler. […] An additional 100% phosphorylation well (5 μL phosphorylated peptide substrate solution), a 0% phosphorylated well (5 μL of a mixture of kinase and peptide substrate, without test compounds and ATP), and a 0% inhibitory well (5 μL of a mixture of kinase and peptide substrate and appropriate concentration of ATP) were set as control. Two repeats were set for each concentration. The above reaction system was incubated at 30° C. for 1.5 hours. […] 2.5 μL of the diluted mixture was added to each well and the system was incubated at 30° C. for another 1 hour. […] The substrate phosphorylation rate was obtained by calculating the ratio, and the activity of the kinase and the effect of the inhibitor on the kinase was further calculated. Every experiment was repeated at least three times.

[4] = test system: human acute myeloid leukemia cell line U937; assay: CCK-8 in vitro proliferation inhibition; format: cell-based; conditions: read-out: Inhibitory activity (IC50) on cell proliferation, U937
Procedure: as §1, §2, §3, §4

JAK1 = JAK1 (Homo sapiens (Human), UniProt P23458); assay: Z′-Lyte kinase inhibitory activity test; format: biochemical; conditions: ATP concentration Km
Procedure: as §5

JAK3 = JAK3 (Homo sapiens (Human), UniProt P52333); assay: Z′-Lyte kinase inhibitory activity test; format: biochemical; conditions: for JAK3 kinase inhibitory activity and selectivity (in words): summary of Table 3, activity maintained at ATP 1 mM
Procedure: as §5

TYK2 = TYK2 (Homo sapiens (Human), UniProt P29597); assay: Z′-Lyte kinase inhibitory activity test; format: biochemical; conditions: ATP concentration Km
Procedure: as §5

JAK2, sequence (O60674 whole entry): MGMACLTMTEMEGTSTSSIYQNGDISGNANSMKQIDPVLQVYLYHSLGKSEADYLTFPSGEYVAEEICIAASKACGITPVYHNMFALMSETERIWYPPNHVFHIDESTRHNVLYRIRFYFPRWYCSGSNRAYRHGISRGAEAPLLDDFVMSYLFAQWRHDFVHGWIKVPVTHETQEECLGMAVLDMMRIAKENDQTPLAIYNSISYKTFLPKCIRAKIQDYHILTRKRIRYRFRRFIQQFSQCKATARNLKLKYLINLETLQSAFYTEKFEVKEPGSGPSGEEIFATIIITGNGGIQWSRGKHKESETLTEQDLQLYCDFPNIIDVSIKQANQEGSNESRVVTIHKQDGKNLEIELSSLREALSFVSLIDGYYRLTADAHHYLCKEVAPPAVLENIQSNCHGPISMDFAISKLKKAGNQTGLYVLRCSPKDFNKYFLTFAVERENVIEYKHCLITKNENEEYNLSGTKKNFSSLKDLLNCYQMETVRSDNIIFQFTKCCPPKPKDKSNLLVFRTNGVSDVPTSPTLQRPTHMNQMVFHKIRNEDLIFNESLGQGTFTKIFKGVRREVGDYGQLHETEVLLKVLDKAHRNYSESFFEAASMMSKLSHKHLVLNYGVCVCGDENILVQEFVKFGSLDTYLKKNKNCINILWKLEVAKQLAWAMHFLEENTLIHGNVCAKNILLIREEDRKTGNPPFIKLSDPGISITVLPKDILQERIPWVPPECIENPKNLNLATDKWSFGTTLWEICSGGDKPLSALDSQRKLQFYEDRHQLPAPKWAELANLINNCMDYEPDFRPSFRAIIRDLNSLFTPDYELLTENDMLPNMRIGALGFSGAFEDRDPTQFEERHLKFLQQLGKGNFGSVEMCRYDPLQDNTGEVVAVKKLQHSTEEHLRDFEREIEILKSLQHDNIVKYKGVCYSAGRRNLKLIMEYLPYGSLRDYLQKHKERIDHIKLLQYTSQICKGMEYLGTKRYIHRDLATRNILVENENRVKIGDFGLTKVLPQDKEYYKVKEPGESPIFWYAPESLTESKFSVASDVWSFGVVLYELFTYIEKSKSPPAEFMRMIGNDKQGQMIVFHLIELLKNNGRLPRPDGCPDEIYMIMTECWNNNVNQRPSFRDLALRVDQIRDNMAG
JAK1, sequence (P23458 whole entry): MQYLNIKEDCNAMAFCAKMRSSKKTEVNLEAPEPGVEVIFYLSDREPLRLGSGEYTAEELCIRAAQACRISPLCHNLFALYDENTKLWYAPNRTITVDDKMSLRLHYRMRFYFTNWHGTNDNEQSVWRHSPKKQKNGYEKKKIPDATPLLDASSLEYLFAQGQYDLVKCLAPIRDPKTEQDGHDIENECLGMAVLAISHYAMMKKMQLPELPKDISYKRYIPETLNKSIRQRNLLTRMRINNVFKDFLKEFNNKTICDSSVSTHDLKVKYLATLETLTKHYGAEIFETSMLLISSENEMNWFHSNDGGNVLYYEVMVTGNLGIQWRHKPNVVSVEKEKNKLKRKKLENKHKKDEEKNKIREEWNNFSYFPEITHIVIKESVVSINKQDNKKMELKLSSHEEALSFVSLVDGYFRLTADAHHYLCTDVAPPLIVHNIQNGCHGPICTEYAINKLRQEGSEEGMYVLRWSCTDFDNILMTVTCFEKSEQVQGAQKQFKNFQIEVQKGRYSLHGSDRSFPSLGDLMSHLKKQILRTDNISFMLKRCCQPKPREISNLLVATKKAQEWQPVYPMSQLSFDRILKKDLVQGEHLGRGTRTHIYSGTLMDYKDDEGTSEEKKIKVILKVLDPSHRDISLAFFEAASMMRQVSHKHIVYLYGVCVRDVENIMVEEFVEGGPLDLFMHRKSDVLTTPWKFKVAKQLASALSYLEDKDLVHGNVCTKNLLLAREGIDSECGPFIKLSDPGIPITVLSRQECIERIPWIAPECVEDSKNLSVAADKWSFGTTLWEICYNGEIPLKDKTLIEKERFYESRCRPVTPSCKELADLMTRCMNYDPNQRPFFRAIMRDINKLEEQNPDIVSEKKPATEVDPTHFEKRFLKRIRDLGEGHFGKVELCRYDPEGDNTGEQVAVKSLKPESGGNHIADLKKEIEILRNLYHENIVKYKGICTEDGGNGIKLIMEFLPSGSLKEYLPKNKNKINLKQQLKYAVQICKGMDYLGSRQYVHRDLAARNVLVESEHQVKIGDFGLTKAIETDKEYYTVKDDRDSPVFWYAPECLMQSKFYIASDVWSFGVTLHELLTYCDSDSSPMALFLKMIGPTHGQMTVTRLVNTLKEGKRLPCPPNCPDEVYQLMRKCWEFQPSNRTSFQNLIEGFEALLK
TYK2, sequence (P29597 whole entry): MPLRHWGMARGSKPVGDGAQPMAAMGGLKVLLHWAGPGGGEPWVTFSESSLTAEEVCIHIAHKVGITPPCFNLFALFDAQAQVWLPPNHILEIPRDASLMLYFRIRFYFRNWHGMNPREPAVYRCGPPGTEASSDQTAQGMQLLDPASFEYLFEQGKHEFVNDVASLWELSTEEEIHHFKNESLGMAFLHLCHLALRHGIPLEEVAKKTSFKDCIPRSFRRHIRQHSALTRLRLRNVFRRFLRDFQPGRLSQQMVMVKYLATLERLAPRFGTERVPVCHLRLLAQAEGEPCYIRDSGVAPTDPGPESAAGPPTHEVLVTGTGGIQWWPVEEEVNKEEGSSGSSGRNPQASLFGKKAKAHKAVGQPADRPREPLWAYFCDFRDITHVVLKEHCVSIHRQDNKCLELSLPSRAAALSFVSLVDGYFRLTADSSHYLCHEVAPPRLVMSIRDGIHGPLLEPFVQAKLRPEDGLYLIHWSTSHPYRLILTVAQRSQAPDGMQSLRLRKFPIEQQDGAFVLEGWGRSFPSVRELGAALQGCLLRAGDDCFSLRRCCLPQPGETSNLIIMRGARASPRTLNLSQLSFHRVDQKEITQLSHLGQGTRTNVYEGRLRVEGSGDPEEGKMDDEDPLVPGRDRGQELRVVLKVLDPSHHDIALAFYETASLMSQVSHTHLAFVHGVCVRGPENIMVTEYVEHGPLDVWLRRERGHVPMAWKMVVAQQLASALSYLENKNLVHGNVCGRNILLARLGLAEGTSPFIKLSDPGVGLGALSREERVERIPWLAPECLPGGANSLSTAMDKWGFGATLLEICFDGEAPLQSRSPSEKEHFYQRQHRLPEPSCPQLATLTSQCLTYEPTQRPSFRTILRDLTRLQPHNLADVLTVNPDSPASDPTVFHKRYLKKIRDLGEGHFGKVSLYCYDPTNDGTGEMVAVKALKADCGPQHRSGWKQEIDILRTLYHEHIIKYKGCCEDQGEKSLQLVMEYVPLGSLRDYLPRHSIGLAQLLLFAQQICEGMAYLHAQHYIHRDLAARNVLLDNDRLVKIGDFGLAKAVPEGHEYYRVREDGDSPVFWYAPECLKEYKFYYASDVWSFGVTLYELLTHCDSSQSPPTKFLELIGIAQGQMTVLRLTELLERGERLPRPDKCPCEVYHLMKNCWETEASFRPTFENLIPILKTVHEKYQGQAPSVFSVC
JAK3, sequence (P52333 whole entry): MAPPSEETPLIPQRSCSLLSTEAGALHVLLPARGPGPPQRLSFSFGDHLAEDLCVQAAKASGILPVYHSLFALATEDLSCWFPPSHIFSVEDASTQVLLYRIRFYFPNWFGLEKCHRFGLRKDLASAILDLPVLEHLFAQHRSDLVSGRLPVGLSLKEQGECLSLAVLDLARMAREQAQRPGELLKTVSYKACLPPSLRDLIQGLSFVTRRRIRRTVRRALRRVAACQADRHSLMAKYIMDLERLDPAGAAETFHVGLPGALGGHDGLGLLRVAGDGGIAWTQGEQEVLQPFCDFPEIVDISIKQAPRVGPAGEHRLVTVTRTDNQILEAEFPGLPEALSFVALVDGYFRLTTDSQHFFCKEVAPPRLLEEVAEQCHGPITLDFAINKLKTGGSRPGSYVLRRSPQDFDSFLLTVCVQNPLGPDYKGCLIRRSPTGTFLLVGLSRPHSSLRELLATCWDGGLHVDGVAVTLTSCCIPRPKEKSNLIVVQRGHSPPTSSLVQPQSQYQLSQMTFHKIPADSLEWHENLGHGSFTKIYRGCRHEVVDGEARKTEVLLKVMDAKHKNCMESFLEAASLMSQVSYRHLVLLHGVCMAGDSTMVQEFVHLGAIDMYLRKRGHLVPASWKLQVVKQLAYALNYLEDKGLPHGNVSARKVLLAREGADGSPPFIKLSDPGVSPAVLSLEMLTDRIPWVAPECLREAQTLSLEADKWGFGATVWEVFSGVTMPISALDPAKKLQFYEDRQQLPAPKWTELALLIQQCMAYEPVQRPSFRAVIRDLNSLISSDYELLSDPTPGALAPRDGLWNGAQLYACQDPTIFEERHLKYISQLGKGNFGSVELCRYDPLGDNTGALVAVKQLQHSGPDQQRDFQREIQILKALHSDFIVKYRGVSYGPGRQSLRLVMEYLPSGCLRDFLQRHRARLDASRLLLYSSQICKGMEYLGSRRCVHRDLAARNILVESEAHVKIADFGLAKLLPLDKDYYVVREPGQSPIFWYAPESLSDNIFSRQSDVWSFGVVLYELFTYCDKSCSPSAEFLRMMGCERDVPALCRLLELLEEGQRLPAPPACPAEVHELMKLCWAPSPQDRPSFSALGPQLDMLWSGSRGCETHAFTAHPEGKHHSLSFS

Row | SMILES | IC50 ([1]; Homo sapiens, K562, 72 hours) | IC50 ([2]; Homo sapiens, HuT78, 72 hours) | IC50 ([3]; Homo sapiens, Jurkat) | IC50 (JAK2; ATP concentration Km) | IC50 ([4]; Homo sapiens, U-937, 72 hours) | IC50 (JAK1) | IC50 (JAK3; ATP concentration 1 mM, in μM) | IC50 (JAK3; ATP concentration Km) | IC50 (TYK2) | IC50 (JAK3; ATP concentration 1 mM) | IC50 (JAK1; in μM) | IC50 (JAK2; ATP concentration Km, in μM) | IC50 ([4]; 72 hours) | IC50 ([1]; 72 hours) | IC50 ([2]; 72 hours) | IC50 [3] | JAK3 kinase inhibitory activity and selectivity (in words) (JAK3) | IC50 (JAK2) | IC50 (JAK3)
1 | CN1CCN(C2CCN(c3ccc(Nc4ncc(Cl)c(O[C@@H]5CO[C@H]6[C@@H]5OC[C@H]6O)n4)cc3Cl)CC2)CC1 [LS 4-104] | 542 nM | 2420 nM | 2050 nM | 0.291 µM | – | – | – | – | – | – | – | – | – | – | – | – | – | – | –
2 | COc1cc(Nc2ncc(Cl)c(O[C@@H]3CO[C@H]4[C@@H]3OC[C@H]4O)n2)ccc1N1CCC(N2CCN(C)CC2)CC1 [LS 4-143] | 354 nM | 3380 nM | 6340 nM | 0.541 µM | 739 nM | 0.618 µM | > 10 µM | 0.0474 µM | 421 nM | – | – | – | – | – | – | – | – | – | –
3 | CN1CCN(C2CCN(c3ccc(Nc4ncc(Cl)c(O[C@@H]5CO[C@H]6[C@@H]5OC[C@H]6O)n4)cc3)CC2)CC1 [LS 4-145] | 822 nM | 2390 nM | 9030 nM | 0.981 µM | 516 nM | 0.471 µM | – | 0.066 µM | 301 nM | 4.29 µM | – | – | – | – | – | – | – | – | –
4 | C=CC(=O)Nc1cc(Nc2ncc(Cl)c(O[C@@H]3CO[C@H]4[C@@H]3OC[C@H]4O)n2)c(OC)cc1N1CCC(N2CCN(C)CC2)CC1 [LS 5-3] | 376 nM | 8080 nM | 8670 nM | – | 5380 nM | – | – | 0.133 µM | – | – | > 10 µM | > 10 µM | – | – | – | – | – | – | –
5 | C=CC(=O)Nc1cc(Nc2ncc(Cl)c(O[C@@H]3CO[C@H]4[C@@H]3OC[C@H]4O)n2)ccc1N1CCC(N2CCN(C)CC2)CC1 [LS 5-12, N-(5-((5-chloro-4-(((3R,3aR,6R, 6aR)-6-hydroxyhexahydrofurano[3,2-b]furan-3-yl)oxygen)pyrimidin-2-yl)amino)-2-(4-(4-methylpiperazin-1-yl)piperidin-1-yl)phenyl) acrylamide] | – | – | – | – | – | 1.54 µM | – | – | 369 nM | – | – | – | 35.9 nM | 290 nM | 31.7 nM | 434 nM | strong and selective JAK3 kinase inhibitory activity | 1.03 µM | –
6 | C=CC(=O)Nc1cc(Nc2ncc(Cl)c(O[C@@H]3CO[C@H]4[C@@H]3OC[C@H]4O)n2)ccc1F [LS 5-62] | – | – | – | – | – | 1.06 µM | – | – | 860 nM | – | – | – | 111 nM | 637 nM | 423 nM | 2460 nM | strong and selective JAK3 kinase inhibitory activity | 11 µM | 0.0022 µM and 0.00226 µM
7 | C=CC(=O)Nc1cc(Nc2ncc(Cl)c(O[C@@H]3CO[C@H]4[C@@H]3OC[C@H]4O)n2)ccc1N1CCOCC1 [LS 5-66] | 1860 nM | 1090 nM | 2640 nM | 1.16 µM | 87.5 nM | 1.11 µM | – | 0.0059 µM | 335 nM | 0.0144 µM | – | – | – | – | – | – | strong and selective JAK3 kinase inhibitory activity | – | –
8 | C/C=C/C(=O)Nc1cc(Nc2ncc(Cl)c(O[C@@H]3CO[C@H]4[C@@H]3OC[C@H]4O)n2)ccc1N1CCC(N2CCN(C)CC2)CC1 [LS 5-72] | 2760 nM | 928 nM | 2780 nM | 1.54 µM | 524 nM | 2.67 µM | – | 0.0905 µM | 430 nM | 4.38 µM | – | – | – | – | – | – | – | – | –
9 | C=C(C)C(=O)Nc1cc(Nc2ncc(Cl)c(O[C@@H]3CO[C@H]4[C@@H]3OC[C@H]4O)n2)ccc1N1CCC(N2CCN(C)CC2)CC1 [LS 5-73] | 117 nM | 476 nM | 2240 nM | 1.63 µM | 246 nM | 1.73 µM | – | 0.0724 µM | 312 nM | 4.94 µM | – | – | – | – | – | – | – | – | –
10 | C=CC(=O)Nc1cc(Nc2ncc(Cl)c(O[C@@H]3CO[C@H]4[C@@H]3OC[C@H]4O)n2)ccc1N(C)CCO [LS 5-74] | 91.8 nM | 448 nM | 3950 nM | 1.52 µM | 181 nM | 1.12 µM | – | 0.00426 µM | 226 nM | 0.00737 µM | – | – | – | – | – | – | strong and selective JAK3 kinase inhibitory activity | – | –
11 | C=CC(=O)Nc1cccc(Nc2ncc(Cl)c(O[C@@H]3CO[C@H]4[C@@H]3OC[C@H]4O)n2)c1 [LS 5-77] | – | – | – | – | – | 0.556 µM | – | – | 93.9 nM | – | – | – | 106 nM | 103 nM | 447 nM | 1660 nM | strong and selective JAK3 kinase inhibitory activity | 1.4 µM | 0.00125 µM and 0.00239 µM
12 | CN(C)C/C=C/C(=O)Nc1cc(Nc2ncc(Cl)c(O[C@@H]3CO[C@H]4[C@@H]3OC[C@H]4O)n2)ccc1N1CCC(N2CCN(C)CC2)CC1 [LS 5-81] | 5980 nM | 1060 nM | 3050 nM | 2.37 µM | 227 nM | 4.88 µM | – | 0.057 µM | 278 nM | 4.19 µM | – | – | – | – | – | – | – | – | –
13 | C=CC(=O)Nc1cc(Nc2ncc(Cl)c(O[C@@H]3CO[C@H]4[C@@H]3OC[C@H]4O)n2)ccc1N(C)CCN(C)C [LS 5-88] | 417 nM | 81.1 nM | 111 nM | – | 15.3 nM | 2.87 µM | – | 0.00193 µM | 424 nM | 0.00225 µM | – | – | – | – | – | – | – | – | –
14 | C=CC(=O)Nc1cc(Nc2ncc(Cl)c(O[C@@H]3CO[C@H]4[C@@H]3OC[C@H]4O)n2)ccc1N1C[C@@H]2C[C@H]1CO2 [LS 5-152, N-(2-(((1S,4S)-2-oxa-5-azabicyclic[2.2.1]heptane-5-yl)-5-(5-chloro-4-(((3R,3aR,6R, 6aR)-6-hydroxyhexahydrofurano[3,2-b]furan-3-yl)oxygen)pyrimidin-2-yl)amino)phenyl) acrylamide] | 47.2 nM | 428 nM | 288 nM | – | 19.6 nM | 0.19 µM | – | 0.0015 µM | 148 nM | 0.00129 µM | – | – | – | – | – | – | – | – | –

From patent US20230348487A1, “2-AMINOPYRIMIDINE COMPOUND AND PHARMACEUTICAL COMPOSITION THEREOF AND APPLICATION THEREOF” (GUANGZHOU SALUSTIER BIOSCIENCES CO., LTD., priority 2021, published 2023)
